In article PMC9024338, “Bruceine H Mediates EGFR-TKI Drug Persistence in NSCLC by Notch3-Dependent β-Catenin Activating FOXO3a Signaling” (Frontiers in Oncology, 2022):
Where two headings read alike, the source gives them in different places.

Assay: Preliminary pharmacokinetics in SD rats
Format: in vivo
Settings: male, SD, rat, plasma; for concentration at 0.25 h / concentration at 0.5 h / concentration at 0.75 h / concentration at 1 h / concentration at 2 h / concentration at 4 h: p.o. 10 mg/kg
Protocol: We administered BH by gavage and intravenous administration to SD rats (male, 200–220 g, n = 6) after they had fasted for 12 h. For oral gavage, the BH was dissolved in DMSO/0.5% CMC-Na (5/95, v/v/), and for intravenous administration, it was dissolved in DMSO/0.9% NaCl (5/95, v/v/), and then the blood samples were collected at intervals to determine the pharmacokinetic (PK) profiles of SD rats.

[1] = iv, 2 mg/kg, i.v. 2 mg/kg, read-out: Concentration of BH in rat plasma, Mean
[2] = iv, 2 mg/kg, i.v. 2 mg/kg, read-out: Concentration of BH in rat plasma, individual rats No1-No3
[3] = po, 10 mg/kg, read-out: Concentration of BH in rat plasma, Mean
[4] = po, 10 mg/kg, read-out: Concentration of BH in rat plasma, individual rats No1-No3

## CC1=CC(=O)[C@@H](O)[C@]2(C)[C@H]3[C@@H](O)[C@H](O)[C@@]4(CO)OC[C@@]35[C@@H](C[C@@H]12)OC(=O)[C@H](O)[C@]54O [BH, Bruceine H]
iv, 2 mg/kg, i.v. 2 mg/kg, 6 h, read-out: Concentration of BH in rat plasma, individual rats No1-No3
  concentration at 6 h: 37.6 ng/mL
[1]
  concentration at 8 h: 24.5 ng/mL
  concentration at 12 h: 17.9 ng/mL
[2]
  concentration at 8 h: 29.2 ng/mL
  concentration at 12 h: 20 ng/mL
iv, 2 mg/kg, i.v. 2 mg/kg, 24 h, read-out: Concentration of BH in rat plasma, Mean
  concentration at 24 h: 7.37 ng/mL
iv, 2 mg/kg, i.v. 2 mg/kg, 24 h, read-out: Concentration of BH in rat plasma, individual rats No1-No3
  concentration at 24 h: 5.6 ng/mL
iv, 2 mg/kg, i.v., read-out: AUC (0-t), Mean
  AUC(0-t): 944 ng·h/mL
iv, 2 mg/kg, i.v., read-out: AUC (0-t), individual rats No1-No3
  AUC(0-t): 965 ng·h/mL
iv, 2 mg/kg, i.v., read-out: AUC (0-∞), individual rats No1-No3
  AUC(0-inf): 1020 ng·h/mL
iv, 2 mg/kg, i.v., read-out: CLz, Mean (converted)
  clearance: 31.9 mL/min/kg
iv, 2 mg/kg, i.v., read-out: CLz, individual rats No1-No3 (converted)
  clearance: 32.7 mL/min/kg
iv, 2 mg/kg, i.v., read-out: C_last, Mean
  concentration at 24 h: 7.35 ng/mL
iv, 2 mg/kg, i.v., read-out: C_last, individual rats No1-No3
  concentration at 24 h: 5.6 ng/mL
iv, 2 mg/kg, i.v., read-out: MRT (0-∞), Mean
  MRT inf: 8.44 h
iv, 2 mg/kg, i.v., read-out: MRT (0-∞), individual rats No1-No3
  MRT inf: 6.47 h
iv, 2 mg/kg, i.v., read-out: Vz, Mean
  Vd: 26.5 L/kg
iv, 2 mg/kg, i.v., read-out: Vz, individual rats No1-No3
  Vd: 18.6 L/kg
iv, 2 mg/kg, i.v., read-out: t1/2z, Mean (converted)
  half-life: 9.69 h
iv, 2 mg/kg, i.v., read-out: t1/2z, individual rats No1-No3 (converted)
  half-life: 6.55 h
iv, 2 mg/kg, i.v., read-out: λz, Mean (converted)
  k el: 2.11e-05 s⁻¹
iv, 2 mg/kg, i.v., read-out: λz, individual rats No1-No3 (converted)
  k el: 2.94e-05 s⁻¹
po, 10 mg/kg, SD rats, 10 mg/kg po, read-out: AUC0–inf
  AUC(0-inf): 976 ng·h/mL
po, 10 mg/kg, SD rats, 10 mg/kg po, read-out: AUC0–last
  AUC(0-t): 961 ng·h/mL
po, 10 mg/kg, SD rats, 10 mg/kg po, read-out: Half-life (T 1/2) (converted)
  half-life: 3.35 h
po, 10 mg/kg, SD rats, 10 mg/kg po, read-out: Maximum concentration (C max)
  Cmax: 147 ng/mL
[3]
  concentration at 0.25 h: 11.8 ng/mL
  concentration at 0.5 h: 58.1 ng/mL
  concentration at 0.75 h: 104 ng/mL
  concentration at 1 h: 147 ng/mL
  concentration at 2 h: 123 ng/mL
  concentration at 4 h: 101 ng/mL
[4]
  concentration at 0.25 h: 13.6 ng/mL
  concentration at 0.5 h: 68.4 ng/mL
  concentration at 0.75 h: 111 ng/mL
  concentration at 1 h: 154 ng/mL
  concentration at 2 h: 130 ng/mL
  concentration at 4 h: 115 ng/mL
